The record followed here is PMC12348844, “Anti-Trypanosoma cruzi Potential of New Pyrazole-Imidazoline Derivatives” (Molecules, 2025).

Where two headings read alike, the source gives them in different places.

The subject of data set [1] is intracellular amastigotes of T. cruzi. Description: Drug combination with Bz, fixed-ratio isobologram, intracellular amastigotes. The note with it: Trypanosoma cruzi; proportion 1k:Bz 0:5, 72 h; read-out: IC50 (Mean ± DP) in combination assay. Format: cell-based. As for the experimental part:
The isobologram approach assessed the interaction between Bz and the promising candidate in intracellular amastigotes of T. cruzi. Vero cell cultures infected with T. cruzi (Dm28c-Luc) were treated for 72 h with various concentrations of combinations of Bz and the promising candidate, specifically at ratios of 5:0; 4:1; 3:2; 2:3; 1:4 and 0:5. The maximum concentration of each compound was established based on their IC50 values, ensuring both reached the fourth dilution in the serial dilution setup (1:3), culminating in a total of seven dilutions. After 72 h of treatment, parasite viability was measured by luminescence in a Glomax Multi-Detection plate reader (Promega Corporation, Madison, WI, USA) after incubation with luciferin. The IC50 values of each treatment combination were calculated individually, and the fractional inhibitory concentration index (FICI) was derived using the formula FICI = IC50 of the combination/IC50 of the compound alone. The overall FICI (ΣFICI) was calculated by summing the FICIs for both compounds in each combination group, while the average ΣFICI (xΣFICI) represented the overall mean across all combination groups. The xΣFICI values were then employed to classify the interaction as synergistic (xΣFICI ≤ 0.5), additive (0.5 < xΣFICI < 4), or antagonistic (xΣFICI > 4). […]

For data set [2], the system named is T. cruzi Dm28c-Luc intracellular amastigotes. Description: Anti-T. cruzi in vitro assay, intracellular amastigotes in Vero cells (luminescence). Format: cell-based, Trypanosoma cruzi. The note with it: Trypanosoma cruzi. As for the experimental part:
(§1) The genetically modified Trypanosoma cruzi, clone Dm28c (TcI), expressing luciferase (Dm28c-Luc), was kindly provided by Dr. Cristina Henriques from Oswaldo Cruz Institute—Fiocruz. The parasites were maintained using Vero cell cultures in RPMI 1640 medium enriched with 10% FBS. At 4 days post-infection (dpi), the trypomastigotes released into the culture supernatant were harvested, subjected to centrifugation at 800× g for 20 min at 4 °C, and quantified with a Neubauer chamber. The isolated trypomastigotes were subsequently used for phenotypic screening, drug efficacy assessments employing a 3D cardiac model, washout experiments to evaluate reversibility, drug combination studies, and enzymatic assays.
To evaluate the effect of pyrazole-imidazoline derivatives against intracellular amastigotes, Vero cells (1.5 × 10^4 cells/well) were cultured in a white 96-well plate with a clear bottom and subsequently infected with T. cruzi Dm28c-Luc at a 10:1 parasite-to-host cell ratio for 24 h. […] Parasite viability was measured by luminescence following the addition of luciferin (300 µg/mL). Background measurements (non-infected cultures incubated with luciferin, as well as luciferin-only controls) were performed to ensure the signal specifically originates from viable parasites. The IC50 and IC90 values, denoting the concentrations that achieve 50% and 90% reductions in viable parasites, respectively, were calculated using GraphPad Prism 8.2.1 software. Additionally, the selectivity index (SI) was calculated as the cytotoxic concentration (CC50) ratio in mammalian cells to the IC50 against T. cruzi, providing insight into the therapeutic window. Potency against intracellular amastigotes was evaluated using the formula 6—Log10 (IC50).

A short description of data set [3]: Cytotoxicity assay, Vero cells (CellTiter-Glo). In kind it is cell-based. The note with it: African green monkey, mean ± SD. As to the method: Vero cells, obtained from the Rio de Janeiro Cell Bank (BCRT code 0245) and maintained through weekly subculturing with a dissociation solution containing 0.25% trypsin-EDTA, initiated once the monolayer reached an 80–100% confluence. Following harvesting, the cells were washed and resuspended in RPMI 1640 medium enriched with 10% fetal bovine serum (FBS). Cultures were maintained at 37 °C in a 5% CO2-humidified incubator. These cultures were used for drug screening assays and for producing culture-derived trypomastigotes of T. cruzi.
Cytotoxicity assays were performed using Vero cells, which were seeded at a density of 1.5 × 10^4 cells per well in white 96-well plates with clear bottoms. Following a 24 h adhesion period, the cultures were incubated at 37 °C in a 5% CO2 atmosphere. […] After 72 h of incubation, cell viability was assessed by adding CellTiter-Glo reagent (Promega Corporation, Madison, WI, USA), which induces cell lysis and reacts with the released ATP to produce luminescence. The resulting luminescence was measured using a Glomax Multi-Detection plate reader (Promega Corporation, Madison, WI, USA). The half-maximal inhibitory concentration (CC50) for cell viability was then calculated using GraphPad Prism software version 8.2.1.
In general terms: In ATP-based viability assays light output follows the ATP content of the culture.

For data set [4], the system named is T. cruzi Dm28c-Luc trypomastigotes. As to the kind of experiment: Anti-T. cruzi in vitro assay, trypomastigotes (luminescence). In kind it is cell-based. The note with it: Trypanosoma cruzi, 24 h, mean ± SD. As to the method: as §1
Drug susceptibility assays were performed on T. cruzi Dm28c-Luc, a genetically engineered parasite expressing luciferase. The drug screening used both trypomastigotes and intracellular amastigotes. Trypomastigotes (1 × 10^6 parasites/well) were added to white 96-well plates with clear bottoms. […] The luminescence was measured using a Glomax Multi-Detection plate reader (Promega Corporation, Madison, WI, USA).

A further data set deals with T. cruzi (Dm28c-Luc). Description: Reversibility (washout) assay in T. cruzi-infected Vero cells. In kind it is cell-based, Trypanosoma cruzi. As to the method: After treatment, the cultures were thoroughly washed, and parasite recrudescence was evaluated over an extended period of 10 days in RPMI medium supplemented with 10% fetal bovine serum (FBS). Culture supernatants were collected at intervals, and the luminescence signal indicative of trypomastigote release was assessed using a Glomax Multi-Detection plate reader (Promega Corporation, Madison, WI, USA) following the addition of luciferin every 2–3 days. At the experiment’s conclusion, the infection profile of the monolayer was also examined. Cells were fixed with PFA for 20 min at 4 °C, then stained with DAPI for microscopy analysis. Luminescence data were expressed in arbitrary luminescent units (A.L.U), and fluorescence images were acquired using the ImageXpress Micro XLS high-content screening (HCS) system (Molecular Devices, Sunnyvale, CA, USA).

Regarding `O=C(Cn1ccnc1[N+](=O)[O-])NCc1ccccc1` [Bz, Benznidazole, reference compound], the IC50 is 2.3 ± 0.07 µM in data set [1]; 2.51 µM in data set [2] (Vero, intracellular amastigotes, 6 − Log10(IC50), read-out: pIC50 (potency) (converted)); 2.2 ± 0.4 µM in data set [2] (72 h, Dm28c-Luc in Vero cells, mean ± SD, read-out: Intracellular Amastigotes IC50); 20.5 ± 1.8 µM in data set [4]. Further, the concentration for an effect of 90% (IC90) (in general, the concentration needed for an effect of 90%) in data set [2] (72 h, Dm28c-Luc in Vero cells, mean ± SD) is 10.4 ± 0.5 µM; in data set [4], greater than 100 µM. Moreover, in data set [3], the CC50 (usually the concentration giving 50% cytotoxicity) at 72 h was greater than 500 µM. The “reduction of parasite load of cell monolayer at 21 dpi” value in the data set on T. cruzi (Dm28c-Luc) (100 µM, 10 days treatment + 10 days washout) amounted to 98.4%. For the same compound, the “parasite load of cell monolayer at 21 dpi (luminescence)” value in the data set on T. cruzi (Dm28c-Luc) (100 µM, untreated 5 × 10^5 A.L.U) is 8 × 10^3 A.L.U. Further, the “sterility of cultures in reversibility assay” value in the data set on T. cruzi (Dm28c-Luc) (10 days treatment, tested conditions) is reported as “failed to achieve sterility”.
